Reference: US20240252552A1, “LIPOTEICHOIC ACID FROM STAPHYLOCOCCUS EPIDERMIDIS AND ITS USE TO MODULATE NEURONAL ACTIVITY VIA PD-1 INHIBITORY SIGNALLING IN NEURONS” (Northwestern University, priority 2023, published 2024)
Entries after “also recorded” stand apart in the source; their conditions may differ.

How the values were obtained:
PD-1 = PD-1 expression in ex vivo dorsal root ganglion culture (immunofluorescence, qPCR); assay type: cell-based; details: ex vivo DRG, MMG11 + SELTA, TLR2 blockade
Excerpt: FIGS. 5A, 5B, 5C, 5D, and 5E. […] Scale bars=10 μm. (B) Distribution of intensity of PD-1 immunoreactivity in DRG based on the size of individual neurons in control (upper) and SELTA treatment (bottom). […] For all quantification analysis, a two-way ANOVA was used. *P<0.05, **P<0.01, #P<0.05. n=3 to 4 per group.
SELTA elevated PD-1 expression in primary sensory neurons. The inventor next examined PD-1 expression in the primary afferent neurons following direct exposure to SELTA. The inventor performed an ex vivo dorsal root ganglion (DRG) culture using DRG isolated at the levels of L2 to S1. Following 24-hour co-culture with SELTA, the expression of PD-1 was probed using immunofluorescence followed by confocal microscopy (FIG. 5A). To ascertain the cellular distribution of increased PD-1 expression, ImageJ analyses-based on individual cells were done and presented as the function of PD-1 immunoreactivity intensity to the cell size (FIG. 5B). Quantification was based on cell size-differential average fluorescence intensity (FIG. 5C). […] To further understand the expression of PD-1, immunoreactive intensities were normalized to the neuronal marker Neu-N (FIG. 5D). Changes were largely similar to FIG. 5C. The inventor next sought to examine whether the SELTA receptor TLR2 was involved in the modulation of PD-1 expression by SELTA. […]

[1] = system: trigeminal ganglion (TG) neurons; test: Real-time Ca2+ imaging (fura-2 AM) of ATP-stimulated TG neuronal cultures; assay type: cell-based, C57Bl/6 mice; details: TG neurons preincubated with MMG11
Excerpt: FIG. 8. […] Analysis with Student's t test, p<0.0001.
SELTA-induced inhibition of Ca^2+ influx is reversed by neutralizing PD-1. In the transduction of nociceptive signal, Ca^2+ influx through voltage-gated Ca^2+ channels is critical for neurotransmitter release and synaptic transmission (12-14). To investigate whether intracellular Ca^2+ dynamics in the afferents are affected by SELTA (8, 15), the inventor established in vitro trigeminal ganglion (TG) neuronal cultures from adult C57Bl/6 mice and performed real-time Ca^2+ imaging using fura-2 AM (FIG. 8). Cells were pretreated with vehicle or SELTA prior to stimulation with 20 uM ATP. TLR2 specificity of these effects were examined by using MMG11, a TLR2-specific antagonist (10) and PD-1 requirement was examined by pre-incubation with an anti-PD-1 antibody (16).

CCOC(=O)c1ccc(CC(=O)c2ccc(O)c(O)c2O)o1 [MMG11]
effect on SELTA-induced PD-1 mRNA expression (qPCR) (PD-1): abrogated the elevation in PD-1 expression | effect of TLR2 blockade on SELTA-mediated inhibition of Ca2+ influx [1]: abrogated the SELTA mediated inhibition of Ca^2+ influx; also recorded: reverses SELTA-induced reduction of Ca2+ influx
